Format in all cases: cell-based
The test system of experiment [1] is human colorectal cancer HCT-116 cells. Description: MTT cytotoxicity assay, HCT-116. As to conditions: Homo sapiens, MTT, 72 h, n = 3, ± SD, read-out: Adhesive Cell Cultures, IC50 HCT-116. The method, then:
(§1) All newly synthesized PPA derivatives 1–8 were evaluated for their anti-proliferative activity against human breast cancer MCF-7, human prostate adenocarcinoma PC-3, human colorectal cancer HCT-116, human lung cancer A549, human chronic myelogenous leukemia K562, human acute monocytic leukemia THP-1, human multiple myeloma RPMI8226, human acute T-cell leukemia Jurkat, human multiple myeloma NCI-H929, and human embryonic fibroblasts HEF cell lines by MTT assays. All cells were incubated with different concentrations of PPA derivatives for 72 h, with etoposide and PPA used as reference compounds. The anticancer activity of the tested compounds was described as the concentration of drug inhibiting 50% cell growth IC50 (Table 1 and Table 2).
(§2) ^1H-NMR spectra were acquired on an AVANCE III 400 MHz NMR spectrometer (Bruker, Rheinstetten, Germany) in CDCl3. Optical rotations were acquired on a Polaar 3005 Polarimeter (Optical Activity, Huntingdon, Great Britain) using a 2.5 cm cell with a Na 589 nm filter and the concentration of samples was denoted as c. Mass spectra data were acquired on a TSQ Quantum Access Max Mass spectrometer (Thermo Fisher Scientific, Waltham, MA, USA). High-resolution mass spectra (HRMS) were acquired on a LTQ Orbitrap Velos spectrometer (Thermo Scientific) and on a Bruker MicrOTOF. FTIR spectra were acquired on an IR Affinity-1 spectrometer (Shimadzu, Thermo Scientific). Organic solvents used were dried by standard methods when necessary. Commercially available reagents were used without further purification. All reactions were monitored by TLC with silica gel coated plates (EMD/Merck KGaA, Darmstadt, Germany), with visualization by UV light and by charring with 0.1% ninhydrin in EtOH. Column chromatography was performed using Merck 60 Å 70–230 mesh silica gel. The optical density was determined using a Multiskan FC spectrophotometer (Thermo Scientific) at a wavelength of 540 nm when using the MTT assay.
(§3) MCF-7 (breast cancer), PC-3 (prostate adenocarcinoma), HCT-116 (colorectal cancer cell), A549 (lung cancer), K562 (chronic myelogenous leukemia), THP-1 (acute monocytic leukemia), and RPMI8226 (multiple myeloma), Jurkat (acute T-cell leukemia), HEF (human embryonic fibroblasts) was purchased from the Russian Academy of Sciences Cells Bank (Institute of Cytology of the Russian Academy of Sciences, Saint Petersburg, Russian Federation). Multiple myeloma cell line NCI-H929 was purchased from ATCC (USA). The MCF-7, A549 and HEF (human embryonic fibroblasts) were cultured in DMEM medium. Other cell lines were cultured in RPMI1640 medium, (PanEco, Russia) supplemented with 10% fetal bovine serum (GE Healthcare LifeSciences, São Paulo, Brazil), and gentamicin at a concentration of 40 μg/mL and cultured at 37 °C in a humidified atmosphere containing 5% CO2. All experiments were performed with cells at passages 3 to 7 in the logarithmic phase of growth.
(§4) Cells were seeded into 96-well plates of 5 × 10^3 for adhesive cultures and 20 × 10^3 for suspension cultures per well in 90 μL and 135 μL of culture medium, respectively. The test substances were dissolved in DMSO to a concentration of 1 × 10^−2 M. For subsequent dilution of the substances, a serum-free culture medium was used as the diluent. Final concentration of DMSO in wells was no more than 1%. […] Substances were added to the cells in 3–4 replicates after 24 h for adhesive cultures and immediately for suspension cultures. 10–15 μL of serum-free medium was added to the control wells with non-exposed cells. Cells were cultured for 72 h at 37 °C in an atmosphere of 5% CO2.

Experiment [2] deals with human prostate adenocarcinoma PC-3 cells. The experiment is described as follows: MTT cytotoxicity assay, PC-3. As to conditions: Homo sapiens, MTT, 72 h, n = 3, ± SD, read-out: Adhesive Cell Cultures, IC50 PC-3. The method, then:
as §1, §2, §3, §4

Experiment [3] relates to human breast cancer MCF-7 cells. The experiment is described as follows: MTT cytotoxicity assay, MCF-7. As to conditions: MCF7, 72 h, n = 3, ± SD, read-out: Adhesive Cell Cultures, IC50 MCF-7. Here is the method: as §1, §2, §3, §4
In experiment [4] the test system is human lung cancer A549 cells. Description: MTT cytotoxicity assay, A549. As to conditions: 72 h, n = 3, ± SD, read-out: Adhesive Cell Cultures, IC50 A549. Here is the method: as §1, §2, §3, §4
Experiment [5] concerns human embryonic fibroblasts HEF. Description: MTT cytotoxicity assay, HEF (control cells). As to conditions: Fibroblast, 72 h, n = 3, ± SD, read-out: Adhesive Cell Cultures, IC50 HEF. Here is the method:
as §1, §2, §3, §4

In experiment [6] the test system is human chronic myelogenous leukemia K562 cells. Description: MTT cytotoxicity assay, K562. Particulars: Homo sapiens, MTT, 72 h, n = 3, ± SD, read-out: Suspension Cell Cultures, IC50 К562. Here is the method:
as §1, §2, §3, §4

Experiment [7] deals with human multiple myeloma NCI-H929 cells. Description: MTT cytotoxicity assay, NCI-H929. Particulars: Homo sapiens, MTT, 72 h, n = 3, ± SD, read-out: Suspension Cell Cultures, IC50 NCI-Н929. Here is the method:
as §1, §2, §3, §4

Experiment [8] concerns human acute T-cell leukemia Jurkat cells. The experiment is described as follows: MTT cytotoxicity assay, Jurkat. As to conditions: Homo sapiens, MTT, 72 h, n = 3, ± SD, read-out: Suspension Cell Cultures, IC50 Jurkat. The method, then:
as §1, §2, §3, §4

The test system of experiment [9] is human acute monocytic leukemia THP-1 cells. The experiment is described as follows: MTT cytotoxicity assay, THP-1. As to conditions: 72 h, n = 3, ± SD, read-out: Suspension Cell Cultures, IC50 THP-1. Here is the method: as §1, §2, §3, §4
Experiment [10] has as its system human multiple myeloma RPMI8226 cells. The experiment is described as follows: MTT cytotoxicity assay, RPMI8226. As to conditions: Homo sapiens, RPMI-8226; MTT, 72 h, n = 3, ± SD; read-out: Suspension Cell Cultures, IC50 RPMI8228. Here is the method:
as §1, §2, §3, §4

With `C=C1C2=C(C(=O)N1OC)[C@@H](NC)[C@@](C)(O)[C@H](CCCCC)O2` [Compound 1, (2S,3R,4R)-3-Hydroxy-6-methoxy-3-methyl-4-(methylamino)-7-methylene-2-pentyl-3,4,6,7-tetrahydro-pyrano[2,3-c]pyrrol-5(2H)-one], the IC50 in experiment [1] was found to be 3.68 ± 0.81 µM; in experiment [2] it was 3.35 ± 0.92 µM; in experiment [3], 4.1 ± 0.44 µM; in [4], 12.7 ± 0.4 µM; in experiment [5], 22.3 ± 0.44 µM; in [6], 3.25 ± 0.64 µM. For the same compound, the IC50 came out at 1.35 ± 0.69 µM in [7], 2.75 ± 0.21 µM in [8], 2.25 ± 0.21 µM in [9] and 3.97 ± 0.68 µM in experiment [10].
On to `C=C1C2=C(C(=O)N1OC)[C@@H](NCCO)[C@@](C)(O)[C@H](CCCCC)O2` [Compound 2, (2S,3R,4R)-3-Hydroxy-4-[(2-hydroxyethyl)amino]-6-methoxy-3-methyl-7-methylene-2-pentyl-3,4,6,7-tetra-hydropyrano[2,3-c]pyrrol-5(2H)-one], for which the IC50 in [1] was determined as 4.63 ± 0.04 µM; in experiment [2] it was 5.55 ± 1.48 µM; in [3], 3.23 ± 1.07 µM; in experiment [4] it was 15.1 ± 0.45 µM; in experiment [5], 16.2 ± 0.26 µM; in [6], 5.5 ± 0.57 µM. Also, the IC50 in experiment [7] was 2.05 ± 0.35 µM; in experiment [8], 2.6 ± 0.99 µM; in experiment [9] it was 2.3 ± 0.57 µM; in experiment [10] it was 3.5 ± 0.82 µM.
Regarding `C=C1C2=C(C(=O)N1OC)[C@@H](NCCCCO)[C@@](C)(O)[C@H](CCCCC)O2` [Compound 3, (2S,3R,4R)-3-Hydroxy-4-[(4-hydroxybutyl)amino]-6-methoxy-3-methyl-7-methylene-2-pentyl-3,4,6,7-tetra-hydropyrano[2,3-c]pyrrol-5(2H)-one], the IC50 in experiment [1] was found to be 2.9 ± 0.98 µM; in experiment [2], 4.5 ± 1.56 µM; in experiment [3] it was 3.05 ± 1.2 µM; in [5], 15.2 ± 1.02 µM; in experiment [6], 6.7 ± 0.28 µM; in [7], 1.95 ± 0.21 µM. In addition, the figures for the IC50 in experiment [8], in experiment [9] and in experiment [10] were 3.15 ± 1.77 µM, 2.6 ± 0.57 µM and 2.7 ± 0.28 µM, respectively.
`C=CCN[C@@H]1C2=C(O[C@@H](CCCCC)[C@]1(C)O)C(=C)N(OC)C2=O` [Compound 4, (2S,3R,4R)-4-(Allylamino)-3-hydroxy-6-methoxy-3-methyl-7-methylene-2-pentyl-3,4,6,7-tetrahydropyrano-[2,3-c]pyrrol-5(2H)-one]: the IC50 in experiment [1] was determined as 8.4 ± 0.24 µM; in experiment [2], 6.37 ± 0.18 µM; in [3], 4.13 ± 0.23 µM; in [4], 12.7 ± 0.27 µM; in experiment [5], 5.03 ± 0.15 µM; in experiment [6] it was 10.5 ± 0.41 µM. The half-inhibitory concentration (IC50) in [7] was 2.35 ± 0.09 µM; in experiment [8], 3.27 ± 0.07 µM; in [9], 3.32 ± 0.1 µM; in experiment [10] it was 6 ± 0.13 µM.
With `C=C1C2=C(C(=O)N1OC)[C@@H](NCc1ccccc1)[C@@](C)(O)[C@H](CCCCC)O2` [Compound 5, (2S,3R,4R)-4-(benzylamino)-3-hydroxy-6-methoxy-3-methyl-7-methylene-2-pentyl-3,4,6,7-tetrahydro-pyrano[2,3-c]pyrrol-5(2H)-one], the IC50 in experiment [1] amounted to 12.9 ± 0.3 µM; in [2], 24.7 ± 1.24 µM; in [3] it was 35.7 ± 0.65 µM; in experiment [4], 37.5 ± 1.33 µM; in [5], 53.1 ± 1.06 µM; in experiment [6] it was 14.1 ± 0.48 µM. Moreover, the values for the IC50 in [8], in experiment [9] and in [10] were 10.1 ± 0.44 µM, 15.1 ± 0.36 µM and 16 ± 0.16 µM, respectively.
Consider `C=C1C2=C(C(=O)N1OC)[C@@H](N1CCC(N3CCCC3)CC1)[C@@](C)(O)[C@H](CCCCC)O2` [Compound 7, (2S,3R,4R)-3-Hydroxy-6-methoxy-3-methyl-7-methylene-2-pentyl-4-(4-pyrrolidin-1-ylpiperidin-1-yl)-3,4,6,7-tetrahydropyrano[2,3-c]pyrrol-5(2H)-one], for which the IC50 is 1.65 ± 0.63 µM in [1]; 3.65 ± 0.64 µM in [2]; 1.8 ± 0.44 µM in experiment [3]; 12.2 ± 0.2 µM in experiment [4]; 22.3 ± 0.33 µM in [5]; 6.03 ± 0.91 µM in experiment [6]. The IC50 came to 2 ± 0.26 µM in experiment [7], 2.73 ± 1.53 µM in experiment [8], 3.45 ± 0.21 µM in [9] and 3.35 ± 1.48 µM in experiment [10].
Regarding `C=C1C2=C(C(=O)N1OC)[C@@H](N1CCC(O)CC1)[C@@](C)(O)[C@H](CCCCC)O2` [Compound 8, (2S,3R,4R)-3-Hydroxy-4-(4-hydroxypiperidin-1-yl)-6-methoxy-3-methyl-7-methylene-2-pentyl-3,4,6,7-tetra-hydropyrano[2,3-c]pyrrol-5(2H)-one], the IC50 was found to be 2.64 ± 0.05 µM in experiment [1]; 4.53 ± 0.4 µM in experiment [2]; 3.2 ± 0.52 µM in experiment [3]; 9.4 ± 0.14 µM in experiment [4]; 6.7 ± 0.23 µM in [5]; 4.9 ± 2.4 µM in [6]. In addition, the IC50 in experiment [7] amounted to 1.87 ± 0.25 µM; in experiment [8], 2.6 ± 1.13 µM; in [9], 2.1 ± 0.28 µM; in [10] it was 1.4 ± 0.28 µM.
For the compound `C=C1C2=C(C(=O)N1OC)[C@H](O)[C@@](C)(O)[C@H](CCCCC)O2` [PPA, phaeosphaeride A], the IC50 in experiment [1] worked out at 24.2 ± 0.75 µM; in [2], 32.1 ± 0.77 µM; in experiment [3], 20.3 ± 0.8 µM; in experiment [4], 41.1 ± 2.6 µM; in [5], 19.1 ± 0.25 µM; in experiment [6], 20.5 ± 1.46 µM. Moreover, the concentration for half-maximal inhibition (IC50) is 6.5 ± 0.3 µM in experiment [7], 9.7 ± 0.42 µM in experiment [8], 19.1 ± 0.45 µM in experiment [9] and 9.15 ± 0.64 µM in experiment [10].

These data come from paper PMC6278656, “Synthesis and Biological Evaluation of Phaeosphaeride A Derivatives as Antitumor Agents” (Molecules, 2018).
